Counter-ions that a name gives are not always drawn. Like-named read-outs stand apart in the source and are kept apart here.

Assay [1] has as its target T1, Kir2.1 channel (Mus musculus, UniProt P35561).
T1 sequence (P35561 1-428): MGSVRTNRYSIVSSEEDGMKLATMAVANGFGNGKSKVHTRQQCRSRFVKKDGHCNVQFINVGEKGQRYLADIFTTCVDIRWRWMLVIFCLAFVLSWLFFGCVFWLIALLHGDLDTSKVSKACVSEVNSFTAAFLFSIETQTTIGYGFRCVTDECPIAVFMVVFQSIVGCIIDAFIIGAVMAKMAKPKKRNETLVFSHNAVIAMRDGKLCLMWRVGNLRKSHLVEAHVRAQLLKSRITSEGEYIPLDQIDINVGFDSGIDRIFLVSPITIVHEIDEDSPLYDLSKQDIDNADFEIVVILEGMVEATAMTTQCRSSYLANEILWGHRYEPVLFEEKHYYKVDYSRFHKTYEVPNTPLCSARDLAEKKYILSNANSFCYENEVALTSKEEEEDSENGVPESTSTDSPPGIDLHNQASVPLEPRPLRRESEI
Nature of the assay: Patch-clamp recording of Kir2.1 currents in freshly isolated brain capillary endothelial cells (cECs). To be noted: for Effect of simultaneous PKC and IP3R/Ca2+ block on PGE2-mediated suppression of Kir2.1 currents: 1 μM Gö6976 + 30 μM CPA bath-applied + 5.4 mM BAPTA dialyzed together; for Effect of simultaneous PKC and IP3R/Ca2+ block on PGE2-mediated suppression of Kir2.1 currents / Effect on PGE2-induced reduction of Kir2.1 current: PGE2 2 μM, 0 mM Mg-ATP; for Effect on PGE2-induced reduction of Kir2.1 current: diC8-PIP2 10 μM dialyzed, U73122 10 μM bath, Gö6976 1 μM bath, BAPTA 5.4 mM dialyzed; for Decline of Kir2.1 currents over 15 min: in pipette: 1 mM Mg-ATP, 1 mM Mg-ATP-γ-S, or 10 μM diC8-PIP2 with 0 mM Mg-ATP. For orientation: The patch-clamp technique gives a direct electrical read-out from membranes.

Assay [2] concerns capillary-to-arteriole electrical signaling. Briefly: Ex vivo CaPA preparation from transgenic mice: arteriolar tone and dilation to capillary 10 mM K+. To be noted: for Arteriolar dilation in response to capillary stimulation with 10 mM K+: 1 mM 4-AP, 30 ng/mL HB-EGF bath, or exogenous PIP2 bath; for Myogenic tone of arteriolar segment: 1 mM 4-AP or 30 ng/mL HB-EGF.
The target of assay [3] is T1, Kir2.1 channel. Nature of the assay: Patch-clamp Ba2+-sensitive Kir2.1 current in cECs from transgenic mice. More on the design: freshly isolated capillary endothelial cells from TgNotch3^WT and TgNotch3^R169C brains; endogenous in cells; host or cells: freshly isolated brain capillary endothelial cells from TgNotch3^WT and TgNotch3^R169C mice (FVB/N background). The assay is classed as cell-based, TgNotch3^WT and TgNotch3^R169C mice. As to conditions: HB-EGF (30 ng/ml, 20 minutes).

Assay [4] has as its system functional hyperemia. Briefly: Whisker stimulation-induced functional hyperemia in vivo (laser Doppler flowmetry, somatosensory cortex). As to conditions: for CBF responses to whisker stimulation: 20 nM HB-EGF perfused over cranial window. Set-up: species or system TgNotch3^WT and TgNotch3^R169C mice.
Assay [5] concerns K+-evoked capillary hyperemia. Briefly: In vivo two-photon imaging of K+-evoked capillary RBC flux through cranial window. Set-up: species or system C57BL/6J mouse. As to conditions: 0-mM Ca2+ solution containing 200 μM diltiazem on cranial surface, end of experiment.
The mark [6] stands for this setting: cECs dialyzed with 1 mM Mg-ATP, PKC, PKG, PKA inhibitors.
[7] abbreviates: dialyzed cECs, 1 mM Mg-ATP, 1 μM Gö6976, 10 μM Rp-8-Br-PET-cGMPS, 1 μM H-89.
[8] abbreviates: conventional whole-cell, dialyzed cECs.

As to `Cl.Cl.O=S(=O)(NCCNC/C=C/c1ccc(Br)cc1)c1cccc2cnccc12` [H-89 dihydrochloride], in assay [1] (setting [6]), the “Effect on peak Kir2.1 current densities at -140 mV” value (shortened to “Effect … -140 mV”) is given as “absence of an effect”. For the same molecule, the “Effect on Mg-ATP-mediated maintenance of Kir2.1 currents over 15 min” value (from here on “Effect … over 15 min”) in assay [1] (setting [7]) was “unaltered”.
On to `Nc1ccncc1` [4-aminopyridine], for which the “Arteriolar dilation in response to capillary stimulation with 10 mM K+” value in assay [2] (TgNotch3^R169C CaPA) is “did not restore arteriolar dilation”. Also, in assay [2] (TgNotch3^R169C), the “Myogenic tone of arteriolar segment” value is on record as “restores myogenic tone”.
Turning to `CC(C)Oc1ccc2c(=O)c3cc(C(=O)O)ccc3oc2c1` [AH6809], in assay [1], the “Effect on inhibitory effect of PGE2 on Kir2.1 currents” value is reported as “prevented”.
“HB-EGF: heparin-binding epidermal growth factor-like growth factor, EGFR ligand”: the figures for the Kir2.1 current density result in assay [3] (TgNotch3^R169C cECs) and in assay [3] (TgNotch3^WT cECs) were “restored it” and “had no effect”, respectively. For the same molecule, the “CBF responses to whisker stimulation” value in assay [4] (CADASIL model (TgNotch3^R169C)) is given as “restored CBF responses to whisker stimulation in CADASIL model to control levels”; in assay [4] (control mice (TgNotch3^WT)), “no significant effect”. Besides, the “Upstream arteriole response to 10 mM K+ on capillaries” value in assay [2] (CaPA from endothelial specific Kir2.1^-/- (Kir channel deficient) mice, HB-EGF or soluble PIP2 present) is recorded as “without effect”. In assay [2] (HB-EGF 30 ng/mL, TgNotch3^R169C CaPA), the “Time after restoration of myogenic tone until dilation to capillary K+ appeared” value is 17 ± 0.5 min. Further, in assay [2] (TgNotch3^R169C CaPA), the “Arteriolar dilation in response to capillary stimulation with 10 mM K+” value is “gradually increased to the amplitude observed in preparations from the control group”. For the same molecule, in assay [2] (TgNotch3^R169C), the “Myogenic tone of arteriolar segment” value is reported as “also restored myogenic tone”. For the same molecule, the Arteriolar segment diameter result in assay [2] (bath HB-EGF 30 ng/mL, TgNotch3^R169C CaPA) was “rapid and sustained constriction”.
`Cn1c2ccccc2c2c3c(c4c5ccccc5n(CCC#N)c4c21)CNC3=O` [Gö6976, 12-(2-cyanoethyl)-6,7,12,13-tetrahydro-13-methyl-5-oxo-5H-indolo(2,3-a)pyrrolo(3,4-c)-carbazole]: the “Effect of simultaneous PKC and IP3R/Ca2+ block on PGE2-mediated suppression of Kir2.1 currents” value in assay [1] is given as “lack of an effect”. Further, the “Effect … -140 mV” value in assay [1] (setting [6]) is listed as “absence of an effect”. Further, the “Effect on PGE2-induced reduction of Kir2.1 current” value (“Effect on PGE2-induced reduction” for short) in assay [1] (dialyzed cECs) is listed as “no effect”. The “Effect … over 15 min” value in assay [1] (setting [7]) is on record as “unaltered”.
Take `[Ba+2]` [Ba^2+]: the “Inwardly rectifying Kir2.1 currents, block” value in assay [1] is on record as “abolished”. For the same molecule, the “Effect on CBF responses to whisker stimulation” value in assay [4] (100 μM Ba2+, TgNotch3^R169C mice) is “had no effect”. Also, in assay [4] (100 μM Ba2+, TgNotch3^WT mice), the “Decrease of functional hyperemia” value is 60%. Also, the “HB-EGF-mediated increase in functional hyperemia” value in assay [4] (Ba2+ in presence of HB-EGF, CADASIL mice) was “inhibited”. Besides, in assay [2] (Ba2+, TgNotch3^R169C, Timp3^+/- mice), the “K+-induced upstream vasodilation” value is listed as “completely abolished”.
Consider `O=C(O)CN(CC(=O)O)c1ccccc1OCCOc1ccccc1N(CC(=O)O)CC(=O)O` [BAPTA, 1,2-bis(2-aminophenoxy)ethane-N,N,N′,N′-tetraacetic acid], for which the “Effect of simultaneous PKC and IP3R/Ca2+ block on PGE2-mediated suppression of Kir2.1 currents” value in assay [1] is given as “lack of an effect”. Besides, the “Effect on PGE2-induced reduction” value in assay [1] (dialyzed cECs) is on record as “no effect”.
Regarding `CCCCCCCC(=O)OCC(COP(=O)(O)OC1C(O)C(O)C(OP(=O)(O)O)C(OP(=O)(O)O)C1O)OC(=O)CCCCCCC` (stereo not drawn) [diC8-PIP2, 1,2-Dioctanoyl phosphatidylinositol 4,5-bisphosphate sodium salt], in assay [1] (conventional whole-cell, 0 mM Mg-ATP + 10 μM diC8-PIP2 in pipette), the “Initial Kir2.1 currents (at t0)” value is reported as “did not elevate initial Kir2.1 currents”. Also, the “Decline of Kir2.1 currents over 15 min” value in assay [1] (setting [8]) is reported as “largely abrogated the decline in Kir2.1 currents”. In assay [1] (dialyzed cECs), the “Effect on PGE2-induced reduction” value was “completely abrogated”.
With SLIGRL-NH2, in assay [1] (perforated patch, 15 min, SLIGRL-NH2 5 μM), the “Effect on capillary Kir2.1 currents” value is listed as “had no effect”.
As to `O=c1c2nc(Br)n([C@@H]3O[C@@H]4CO[P@@](O)(=S)O[C@H]4[C@H]3O)c2nc2[nH]c(-c3ccccc3)cn12` [Rp-8-Br-PET-cGMPS], in assay [1], the “Effect … over 15 min” value is “unaltered” and the “Effect … -140 mV” value is recorded as “absence of an effect”.
Turning to `Nc1ncnc2c1ncn2[C@@H]1O[C@H](COP(=O)(O)OP(=O)(O)OP(O)(O)=S)[C@@H](O)[C@H]1O` [Mg-ATP-γ-S], the “Decline of Kir2.1 currents over 15 min” value in assay [1] (setting [8]) is reported as “failed to avert current decay”.
`COc1ccc([C@@H]2Sc3ccccc3N(CCN(C)C)C(=O)[C@@H]2OC(C)=O)cc1` [diltiazem]: the “Arteriolar diameter and capillary RBC flux (maximal response)” value in assay [5] is “dramatically dilated arterioles and enhanced capillary RBC flux”.
Turning to `Nc1nc2c(ncn2[C@@H]2O[C@H](COP(=O)(O)OP(=O)(O)OP(=O)(O)O)[C@@H](O)[C@H]2O)c(=O)[nH]1` [Na-GTP], the “Effect on peak Kir2.1 current amplitude or kinetics of current decline” value in assay [1] (100 μM Na-GTP in pipette alone or with 1 mM Mg-ATP) is given as “in neither setting did Na-GTP have an effect”.
In the case of `NC(=O)c1nc(Nc2ccccc2)sc1NC(=O)C1CCCCC1` [UNC3230, 5-[(Cyclohexylcarbonyl)amino]-2-(phenylamino)-thiazolecarboxamide], in assay [1] (perforated-patch (intact cytoplasm), PIK93 300 nM, phenylarsine oxide 10 μM, UNC3230 100 nM, bath-applied), the “Kir2.1 currents 15 min after PIP2 synthesis inhibitor” value was “yielded similar results”.

B1: TIMP3: recombinant soluble TIMP3, matrix metalloproteinase inhibitor (protein, UniProt P35625 24-211, looked up)
Metalloproteinase inhibitor 3: CTCSPSHPQDAFCNSDIVIRAKVVGKKLVKEGPFGTLVYTIKQMKMYRGFTKMPHVQYIHTEASESLCGLKLEVNKYQYLLTGRVYDGKMYTGLCNFVERWDQLTLSQRKGLNYRYHLGCNCKIKSCYYLPCFVTSKNECLWTDMLSNFGYPGYQSKHYACIRQKGGYCSWYRGWAPPDKSIINATDP
For B1, the “Arteriolar vasodilation induced by capillary stimulation with 10 mM K+” value in assay [2] (TgNotch3^WT CaPA, bath 8 nM soluble recombinant TIMP3) was “gradually attenuated and, ultimately, abolished”.

These data come from patent US20220168325A1, “METHODS TO PROMOTE CEREBRAL BLOOD FLOW IN THE BRAIN” (THE UNIVERSITY OF VERMONT, priority 2019, published 2022).
